# Like-named read-outs stand apart in the source and are kept apart here.
# Key:
# [1] = parameters: species or system humans; conditions: in vivo
# Excerpt: AT-001 is in clinical development by Applied Therapeutics for treatment of diabetic cardiomyopathy (American Heart Association 2019 Abstract Mo-2278). […] So, AT-001 would be between approximately 7-12 times shorter lived in human plasma compared to the reported human plasma half-life of zopolrestat (vide infra).
# [2] = humans, oral, SAD and MAD studies; cited from earlier work
# [3] = humans; cited from earlier work
# [4] = ARI i.v. with probenecid i.p., Sprague-Dawley rats; cited from earlier work
# [5] = biological target: T1, transient receptor potential vanilloid 2 (TRPV2) channel (Homo sapiens, UniProt Q9Y5S1); conditions: cited from earlier work
# T1 sequence (Q9Y5S1 1-764): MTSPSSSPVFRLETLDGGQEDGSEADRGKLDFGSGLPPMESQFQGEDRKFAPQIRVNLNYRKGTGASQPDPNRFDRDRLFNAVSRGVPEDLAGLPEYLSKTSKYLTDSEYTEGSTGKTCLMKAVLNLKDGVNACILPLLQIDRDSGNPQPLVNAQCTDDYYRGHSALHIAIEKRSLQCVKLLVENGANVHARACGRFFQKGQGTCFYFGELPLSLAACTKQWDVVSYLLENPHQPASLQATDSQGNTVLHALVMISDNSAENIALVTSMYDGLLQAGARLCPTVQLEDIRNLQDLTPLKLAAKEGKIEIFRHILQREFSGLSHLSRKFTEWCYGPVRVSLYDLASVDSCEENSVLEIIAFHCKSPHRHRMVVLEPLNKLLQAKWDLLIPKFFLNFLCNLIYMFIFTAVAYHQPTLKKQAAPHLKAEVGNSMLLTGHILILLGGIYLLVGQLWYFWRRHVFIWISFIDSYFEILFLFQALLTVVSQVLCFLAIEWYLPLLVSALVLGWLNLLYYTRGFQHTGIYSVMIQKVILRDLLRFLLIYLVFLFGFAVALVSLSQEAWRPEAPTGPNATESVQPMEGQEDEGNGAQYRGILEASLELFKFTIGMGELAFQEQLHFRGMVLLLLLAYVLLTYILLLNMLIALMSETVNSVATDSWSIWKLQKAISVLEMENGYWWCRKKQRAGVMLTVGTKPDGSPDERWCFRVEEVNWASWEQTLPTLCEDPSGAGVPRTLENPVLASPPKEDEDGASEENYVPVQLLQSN
# [6] = mouse model of peripartum cardiomyopathy; cited from earlier work
# [7] = animal model, cited from earlier work
# [8] = non-diabetic patients with heart failure with reduced ejection fraction; cited from earlier work
# [9] = biological target: T2, TRPV2 (Mus musculus, UniProt Q9WTR1); conditions: cited from earlier work
# T2 construct: TRPV2 is expressed in the murine heart; host or cells: murine heart (in vitro and in vivo)
# T2 sequence (Q9WTR1 1-756): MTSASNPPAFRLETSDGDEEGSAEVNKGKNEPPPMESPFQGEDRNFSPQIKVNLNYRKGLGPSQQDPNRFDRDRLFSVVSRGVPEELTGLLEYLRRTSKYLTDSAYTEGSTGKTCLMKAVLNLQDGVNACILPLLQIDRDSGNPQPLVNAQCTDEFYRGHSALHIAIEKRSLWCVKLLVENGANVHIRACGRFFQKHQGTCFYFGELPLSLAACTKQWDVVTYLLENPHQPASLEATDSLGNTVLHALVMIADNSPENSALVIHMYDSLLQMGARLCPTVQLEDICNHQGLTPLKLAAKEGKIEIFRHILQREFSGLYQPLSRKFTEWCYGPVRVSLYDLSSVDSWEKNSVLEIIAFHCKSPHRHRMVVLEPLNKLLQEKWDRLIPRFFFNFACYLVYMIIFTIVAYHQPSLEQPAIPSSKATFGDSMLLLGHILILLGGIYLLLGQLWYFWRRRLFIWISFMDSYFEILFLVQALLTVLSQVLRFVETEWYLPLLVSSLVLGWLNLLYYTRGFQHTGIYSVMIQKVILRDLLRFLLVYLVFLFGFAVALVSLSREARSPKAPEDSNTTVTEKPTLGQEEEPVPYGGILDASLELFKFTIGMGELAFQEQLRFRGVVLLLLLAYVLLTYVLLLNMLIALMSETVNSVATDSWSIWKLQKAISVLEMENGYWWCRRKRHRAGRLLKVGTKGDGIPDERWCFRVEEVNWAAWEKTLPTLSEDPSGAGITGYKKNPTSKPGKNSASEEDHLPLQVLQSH
# [10] = water; cited from earlier work
# [11] = humans, oral route; cited from earlier work
# [12] = cited from earlier work
smiles,measurement,setting,value
O=C(O)Cc1nn(Cc2nc3cc(C(F)(F)F)ccc3s2)c(=O)c2nccnc12 [AT-001],times shorter lived in human plasma compared to zopolrestat,[1],7-12 times
same,median time of maximum concentration (Tmax),[2],1.75 to 3.38 h
same,plasma half-life,[2],1.74 to 3.38 h
CC(/C=C1\SC(=S)N(CC(=O)O)C1=O)=C\c1ccccc1 [Epalrestat],plasma half-life,[3],relatively short
O=C(O)CNS(=O)(=O)c1ccc(NC(=O)c2ccccc2)cc1 [N-[4-(benzoylaminophenyl)sulfonyl]glycine],"plasma profiles and pharmacokinetic parameters (AUC, clearance, mean residence time, volume of distribution)",[4],did not alter
"CCCN(CCC)S(=O)(=O)c1ccc(C(=O)O)cc1 [probenecid, 4-(dipropylsulfamoyl)benzoic acid]",agonism of TRPV2 channel,[5],potent agonist
same,outcomes,[6],improves outcomes
same,apoptotic or arrhythmic pathways,[7],does not elicit
same,myocardial contractility,[7]; via increased calcium cycling on a beat-to-beat basis,increases
same,cardiac function,[8],improve cardiac function
same,inotropic response,[9]; both in vitro and in vivo,positive inotropic response
same,cytosolic calcium (Ca2+) concentration,"[9]; murine heart, TRPV2 activated with probenecid",increases
CCCN(CCC)S(=O)(=O)c1ccc(C(=O)[O-])cc1.[Na+] [sodium salt of probenecid],solubility,[10],77 mg/mL
O=C(O)Cc1nn(Cc2nc3cc(C(F)(F)F)ccc3s2)c(=O)c2ccccc12 [zopolrestat],plasma half-life,[11],27.5 h
same,resting diastolic filling rates,"[12]; after 1 year of treatment, either group",no change
same,exercise LVEF,"[12]; after 1 year of zopolrestat treatment, P 0.001",increases
same,left ventricular stroke volume,"[12]; after 1 year of zopolrestat treatment, P 0.004",increases
same,resting left ventricular ejection fraction (LVEF),"[12]; after 1 year of zopolrestat treatment, P 0.02",increases
same,cardiac output,"[12]; after 1 year of zopolrestat treatment, P 0.03",increases

# Source: US20240033263A1, “COMBINATION OF ALDOSE REDUCTASE INHIBITORS AND PROBENECID FOR THE TREATMENT OF DIABETIC COMPLICATIONS” (priority 2021, published 2024)
